Test results reported in patent US6376480B1, “Vitamin D derivatives with substituents at C-25, process for their production, intermediate products and use for the production of pharmaceutical agents” (Schering Aktiengesellschaft, priority 1995, dated 2002).

Columns and labels:
healthy male rats = assay: acute hypercalcemic action after one-time subcutaneous administration; type: in vivo, rat; conditions: DR = test substance dose/calcitriol dose for comparable effects, serum-calcium
Protocol: To determine the acute hypercalcemic action of various calcitriol derivatives, the test that is described below is carried out:
The action of control (solution base), reference substance (1,25(OH)2—D3=calcitriol) and test substance is tested in each case after one-time subcutaneous administration in groups of 10 healthy male rats (140-170 g). During the testing time, the rats are kept in special cages to determine the excretion of water and mineral substances. Urine is collected in 2 fractions (0-16 hours and 16-22 hours). An oral dose of calcium (0.1 mmol of calcium in 6.5% alpha-hydroxypropylcellulose, 5 ml/animal) replaces at 1600 hours the calcium intake that is lacking by food deprivation. At the end of the test, the animals are killed by decapitation and exsanguinated to determine the serum-calcium values. For the primary screen test in vivo, an individual standard dose (200 μg/kg) is tested. For selected substances, the result is supported by establishing a dose-effect relation.
A hypercalcemic action is shown in serum-calcium level values that are higher than in the control.
The significance of differences between substance groups and controls and between test substance and reference substance are supported with suitable statistical processes.

HL 60 cells [1] = assay: differentiation induction of HL 60 cells to macrophages (NBT reduction); type: cell-based, human; conditions: DR = test substance dose/calcitriol dose for comparable semi-maximum effects; 96 hours incubation
Protocol: It is known in the literature (Mangelsdorf, D. J. et al., J. Cell. Biol. 98: 391-398 (1984)), that the treatment of human leukemia cells (promyelocyte cell line HL 60) in vitro with calcitriol induces the differentiation of cells to macrophages.
HL 60 cells are cultivated in tissue culture medium (RPMI 10% fetal calf serum) at 37° C. in an atmosphere of 5% CO2 in air.
For substance testing, the cells are centrifuged off, and 2.0×10^5 cells/ml in phenol red-free tissue culture medium is taken up. The test substances are dissolved in ethanol and diluted with tissue culture medium without phenol red to the desired concentration. The dilution stages are mixed with the cell suspension at a ratio of 1:10, and 100 μl each of this cell suspension that is mixed with substance is pipetted into an indentation of a 96-hole plate. For control, a cell suspension is mixed analogously with the solvent.
After incubation for 96 hours at 37° C. in 5% CO2 in air, 100 μl of an NBT-TPA solution (nitro blue tetrazolium (NBT), final concentration in the batch of 1 mg/ml, tetradecanoyl phorbolmyristate-13-acetate (TPA), final concentration in the batch of 2×10^−7 mol/l) is pipetted into each indentation of the 96-hole plate in the cell suspension.
By incubation for 2 hours at 37° C. and 5% CO2 in air, NBT is reduced to insoluble formazan because of the intracellular oxygen radical release, stimulated by TPA, in the cells that are differentiated to macrophages.
To complete the reaction, the indentations of the 96-hole plate are suctioned off, and the cells are affixed to the bottom of the plate by adding methanol and dried after affixing. To dissolve the intracellular formazan crystals that are formed, 100 μl of potassium hydroxide (2 mol/l) and 100 μl of dimethyl sulfoxide are pipetted into-each indentation and ultrasonically treated for 1 minute. The concentration of formazan is measured by spectrophotometry at 650 nm.
As a yardstick for the differentiation induction of HL 60 cells to macrophages, the concentration of formed formazan applies.

calcitriol receptor = biological target: T1, calcitriol receptor (Sus scrofa, UniProt A3RGC1); assay: calcitriol-receptor test (competition with 3H-calcitriol); conditions: quotient of concentrations of test substance and calcitriol for 50% competition, receptor protein from intestines of juvenile pigs
T1 sequence (A3RGC1 1-427): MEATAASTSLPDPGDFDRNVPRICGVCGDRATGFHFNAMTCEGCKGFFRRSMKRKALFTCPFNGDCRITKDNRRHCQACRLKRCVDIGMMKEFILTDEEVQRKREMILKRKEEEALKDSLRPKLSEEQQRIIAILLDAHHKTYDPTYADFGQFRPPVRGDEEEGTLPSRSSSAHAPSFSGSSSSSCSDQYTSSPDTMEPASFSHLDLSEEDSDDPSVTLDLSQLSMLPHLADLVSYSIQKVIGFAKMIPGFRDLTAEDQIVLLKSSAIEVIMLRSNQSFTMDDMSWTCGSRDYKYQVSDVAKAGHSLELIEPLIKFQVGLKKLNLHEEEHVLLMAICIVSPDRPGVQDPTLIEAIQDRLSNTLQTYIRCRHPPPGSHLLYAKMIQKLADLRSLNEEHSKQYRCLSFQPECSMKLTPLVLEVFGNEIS
Protocol: The vitamin D activity of the substances according to the invention is determined with the aid of the calcitriol-receptor test. It is carried out with use of a specific receptor protein from the intestines of juvenile pigs.
Then, the samples are centrifuged at 10,000×g for 5 minutes at 4° C. The supernatant is decanted and measured in a β-counter after 1 hour of equilibration in Picofluor 15™.
The competition curves that are obtained with various concentrations of test substance as well as of reference substance (unlabeled calcitriol) at constant concentration of the reference substance (^3H-calcitriol) are placed in relation to one another and a competition factor (KF) is determined.
It is defined as a quotient of the concentrations of the respective test substance and the reference substance, which are necessary for 50% competition: [formula]

HL 60 cells [2] = assay: antagonism of the action of calcitriol in HL 60 cells; type: cell-based, human

Row | Structure (SMILES) | dose ratio for hypercalcemia (healthy male rats) | Competition Factor KF for Receptor Bonding (calcitriol receptor) | Dose Ratio for Differentiation Induction in HL 60 Cells (HL 60 cells [1]) | antagonism of the action of calcitriol in HL 60 cells (HL 60 cells [2])
1 | C=C1/C(=C\C=C2/CCC[C@]3(C)[C@@H]([C@H](C)CCCC(C)(C)O)CC[C@@H]23)C[C@@H](O)C[C@@H]1O [Calcitriol, 1α,25-dihydroxy vitamin D3, reference compound] | 1 |  | 1 | 
2 | C=C1C(=CC=C2CCCC3(C)C2CCC3C(C)C=CC(O)C2(C(C)=O)CC2)CC(O)CC1O [Compound 7b, (5Z,7E,22E)-(1S,3R,24R)-25-Acetyl-26,27-cyclo-9,10-secocholesta-5,7,10(19),22-tetraene-1,3,24-triol] | 300 | 1 | 0.5 | 
3 | C=C1/C(=C\C=C2/CCC[C@]3(C)[C@@H]([C@H](C)/C=C/[C@@H](O)C4(C(=O)CCC)CC4)CC[C@@H]23)C[C@@H](O)C[C@@H]1O [Compound 8b, (5Z,7E,22E)-(1S,3R,24R)-25-(1-oxobutyl)-26,27-cyclo-9,10-secocholesta-5,7,10(19),22-tetraene-1,3,24-triol] | 100 | 2 | 0.9 | 
4 | C=C1/C(=C\C=C2/CCC[C@]3(C)[C@@H]([C@H](C)/C=C/[C@@H](O)C4(C(=O)C(C)(C)C)CC4)CC[C@@H]23)C[C@@H](O)C[C@@H]1O [Compound 15b, (5Z,7E,22E)-(1S,3R,24R)-25-(2,2-Dimethyl-1-oxopropyl)-26,27-cyclo-9,10-secocholesta-5,7,10(19),22-tetraene-1,3,24-triol] | 300 | 6 | 1.1 | 

Further lines, with some results ahead:

Row | dose ratio for hypercalcemia (healthy male rats) | Competition Factor KF for Receptor Bonding (calcitriol receptor) | Structure (SMILES) | Dose Ratio for Differentiation Induction in HL 60 Cells (HL 60 cells [1]) | antagonism of the action of calcitriol in HL 60 cells (HL 60 cells [2])
5 | > 300 | 2 | C=C1/C(=C\C=C2/CCC[C@]3(C)[C@@H]([C@H](C)/C=C/[C@@H](O)C4(C(=O)C#CCCC)CC4)CC[C@@H]23)C[C@@H](O)C[C@@H]1O [Compound 19b, (5Z,7E,22E)-(1S,3R,24R)-25-(1-Oxo-2-hexinyl)-26,27-cyclo-9,10-secocholesta-5,7,10(19),22-tetraene-1,3,24-triol] | 1.5 | 
6 |  | 3.5 | CCCCCCC(=O)C1([C@@H](O)/C=C/[C@@H](C)[C@H]2CC[C@H]3/C(=C/C=C4C[C@@H](O)C[C@H](O)C4)CCC[C@]23C)CC1 [Compound 64a, (7E,22E)-(1R,3R,24S)-25-(1-Oxoheptyl)-26,27-cyclo-19-nor-9,10-secocholesta-5,7,22-triene-1,3,24-triol] | 120 | antagonize the action of calcitriol
7 |  | 3 | CCCCCC(=O)C1([C@H](O)/C=C/C(C)(C)[C@H]2CC[C@H]3/C(=C/C=C4C[C@@H](O)C[C@H](O)C4)CCC[C@]23C)CC1 [Compound 87b, (7E,22E)-(1R,3R,24R)-20-methyl-25-(1-oxohexyl)-26,27-cyclo-19-nor-9,10-secocholesta-5,7,22-triene-1,3,24-triol] | 116 | antagonize the action of calcitriol
